Experimental data reported in EP0409999A1, “LIQUID PREPARATION FOR INTRAOCULAR PERFUSION” (Senju Pharmaceutical Co., Ltd., priority 1989, dated 1990).

System: corneal endothelial cell monolayer
Assay: Corneal endothelial barrier function: CF permeation through cultured corneal endothelial cell monolayer on permeable collagen membrane
Type: cell-based, male white rabbits
Conditions: result in words; effect grows with increasing concentration of substance (I) in the test solution
Method: The eyeballs of male white rabbits were enucleated and in a culture medium prepared by adding 10 % fetal calf serum to Dulbecco's Modified MEM (trademark: Dulbecco's Modified Eagle Medium "Nissui" 2, Nissui Pharmaceutical), (hereinafter referred to as DMEM), the cornea was cut out along the corneosclerai limbus with a pair of scissors. From each of the isolated corneal specimens (8 eyes), the endothelium with Descemet's membrane was peeled off, shorn into small pieces, and seeded with about 5 ml of DMEM in a 75 cm^2 culture flask (trademark: Nunclon Tissue Culture Flask 147589; manufactured by Nunc). After adhesion of the cells to the bottom of the flask, about 20 ml of DMEM was added and the cells were cultured for about 7 days until the growth on the internal wall of the flask became confluent. During this period, the medium was replaced with fresh one every 3 days. After completion of culture, the cells were digested with 5 ml of EDTA- trypsin (a phosphate buffer containing 0.01 % of EDTA and 0.125 % of trypsin and not containing calcium or magnesium ion) and, then, mixed with a sufficient quantity of DMEM to terminate the digestion. The digest was centrifuged at 1000 rpm for 2 minutes and the cells were then collected. The harvested cells were re-suspended in DMEM and filtered through a […] nylon filter to remove Descemet's membrane, leaving an exclusive suspension of cells. […]

SMILES: O=C1O[C@H]([C@@H](O)CO)C(O)=C1OP(=O)(O)O [substance (I)]
- permeation of CF through the cultured corneal endothelial cell monolayer: inhibits the permeation of CF
